Experimental findings from ChEMBL document CHEMBL2203135, “Novel progesterone receptor modulators: 4-aryl-phenylsulfonamides” (Bioorg Med Chem Lett, 2012) are described below.

The target of one series is T1, Progesterone receptor (Homo sapiens, UniProt P06401).
T1 sequence (P06401 whole entry): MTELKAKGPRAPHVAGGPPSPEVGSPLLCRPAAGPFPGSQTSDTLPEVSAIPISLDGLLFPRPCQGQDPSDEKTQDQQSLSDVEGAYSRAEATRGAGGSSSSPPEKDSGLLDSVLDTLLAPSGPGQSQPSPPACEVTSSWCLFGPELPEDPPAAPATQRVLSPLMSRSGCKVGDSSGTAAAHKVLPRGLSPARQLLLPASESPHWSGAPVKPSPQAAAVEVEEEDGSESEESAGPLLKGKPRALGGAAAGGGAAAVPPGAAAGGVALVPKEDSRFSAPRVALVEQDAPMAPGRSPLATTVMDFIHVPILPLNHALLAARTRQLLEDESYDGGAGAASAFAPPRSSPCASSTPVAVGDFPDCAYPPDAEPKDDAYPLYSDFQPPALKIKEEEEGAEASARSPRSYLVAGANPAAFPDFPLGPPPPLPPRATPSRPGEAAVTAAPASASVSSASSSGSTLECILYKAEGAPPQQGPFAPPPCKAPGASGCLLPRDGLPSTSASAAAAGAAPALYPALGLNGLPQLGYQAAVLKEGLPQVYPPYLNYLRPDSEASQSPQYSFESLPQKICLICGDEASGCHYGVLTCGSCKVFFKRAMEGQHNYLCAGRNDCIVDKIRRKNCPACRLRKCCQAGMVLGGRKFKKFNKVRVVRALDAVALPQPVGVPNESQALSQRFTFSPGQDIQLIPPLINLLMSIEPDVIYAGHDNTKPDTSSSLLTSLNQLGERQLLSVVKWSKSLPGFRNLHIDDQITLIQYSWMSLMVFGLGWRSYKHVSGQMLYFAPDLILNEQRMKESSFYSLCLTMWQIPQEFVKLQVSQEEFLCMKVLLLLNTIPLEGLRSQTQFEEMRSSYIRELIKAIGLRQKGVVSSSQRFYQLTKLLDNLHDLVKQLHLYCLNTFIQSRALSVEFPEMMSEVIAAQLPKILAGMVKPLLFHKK
Kind of series: Antagonist activity against progesterone receptor in human T47D cells by alkaline phosphatase assay. It counts as functional, cell-based.

A short description of series [1]: Half life in rat at 20 mg/kg, po administered as single dose. The conditions noted are these: in vivo. It counts as ADME, organism-based. On the set-up: dose 20 mg/kg, route oral.
Series [2] is described as follows: Cmax in rat at 20 mg/kg, po administered as single dose. It counts as ADME, organism-based. On the set-up: dose 20 mg/kg, route oral. The conditions noted are these: in vivo.
Series [3] is described as follows: AUC (0 to infinity) in rat at 20 mg/kg, po administered as single dose. It counts as ADME, organism-based. On the set-up: time infinity, dose 20 mg/kg, route oral. The conditions noted are these: plasma.
For series [4], the target named is T2, Progesterone receptor (Homo sapiens) (UniProt P06401).
T2 sequence (whole entry): T1 sequence (P06401 whole entry)
Kind of series: Antagonist activity against progesterone receptor in human T47D cells at 3 uM by alkaline phosphatase assay. It counts as functional, cell-based.

Series [5] deals with Salmonella typhimurium. Kind of series: Mutagenicity in Salmonella typhimurium in presence of liver S9 fraction by non-GLP Ames test. It counts as toxicity, organism-based. The conditions noted are these: salmonella enterica subsp. enterica serovar typhimurium. (The Ames test detects mutagens through reverse mutation in bacteria.)
The test system of series [6] is Salmonella typhimurium. Kind of series: Mutagenicity in Salmonella typhimurium in absence of liver S9 fraction by non-GLP Ames test. It counts as toxicity, organism-based. The conditions noted are these: salmonella enterica subsp. enterica serovar typhimurium.

pIC50: −log10 of the molar value.

As a reminder, the pIC50 is the IC50 on a negative log10 scale, so that one unit is a factor of ten. A high value points to a small IC50. At Progesterone receptor, `Cn1c(C#N)ccc1-c1ccc(NS(C)(=O)=O)c(C#N)c1` showed a negative logarithm of the IC50 (pIC50) below 5.52.

As to `Cn1c(C#N)ccc1-c1ccc(NS(C)(=O)=O)cc1`, the pIC50 on Progesterone receptor is 8.10.

In general, half-life refers to how long it takes for the measured level to halve. Low readings indicate fast loss, high ones slow loss. As usually defined, the Cmax is the highest concentration seen after dosing. What is called AUC(0-inf) is the area under the concentration-time curve extrapolated to infinity. Read a high AUC(0-inf) as high exposure. With `CC(=O)Nc1ccc(-c2ccc(C#N)n2C)cc1`, the half-life in series [1] was 5 h. The pIC50 against Progesterone receptor was 7.12. Moreover, in series [2], the Cmax amounted to 0.7 µM. Also, the AUC(0-inf) in series [3] came to 1640 ng·h/mL.

Regarding `CCS(=O)(=O)Nc1ccc(-c2ccc(C#N)n2C)c(F)c1`, the pIC50 on Progesterone receptor was 8.22.

As usually defined, the inhibition is the relative decrease from the control value, in per cent. Low values mean a weak effect, high ones a strong effect. The molecule `CC(C)c1ccc(S(=O)(=O)Nc2ccc(-c3ccc(C#N)n3C)cc2)cc1` returned an inhibition in series [4] of 54%.

With `Cn1c(C#N)ccc1-c1ccc(NS(C)(=O)=O)cc1F`, the Activity result in the series on Salmonella typhimurium [5] and with Salmonella typhimurium [6] was “Non-toxic” throughout. This molecule had a pIC50 on Progesterone receptor of 8.10.

Consider `Cn1c(C#N)ccc1-c1ccc(N)cc1`, for which the half-life in series [1] was 2.5 h. For the same molecule, the Activity entry in the series with Salmonella typhimurium [5] was “Toxic”. In series [2], this molecule registered a Cmax of 3.2 µM. This molecule also had an AUC(0-inf) in series [3] of 3080 ng·h/mL.

As for `CCCS(=O)(=O)Nc1ccc(-c2ccc(C#N)n2C)cc1`, the pIC50 against Progesterone receptor was 8.00.

In series [1], `CCS(=O)(=O)Nc1ccc(-c2ccc(C#N)n2C)cc1` had a half-life of 2.5 h. The Activity result in the series with Salmonella typhimurium [5] is recorded as “Toxic”; in the series on Salmonella typhimurium [6], “Non-toxic”. Moreover, on Progesterone receptor, the negative-log IC50 (pIC50) was 8.05. The molecule also yielded a Cmax in series [2] of 6.7 µM. Further, the AUC(0-inf) in series [3] came to 12300 ng·h/mL.

In turn, `Cc1ccc(S(=O)(=O)Nc2ccc(-c3ccc(C#N)n3C)cc2)cc1` had an inhibition in series [4] of 55%.

Molecule `CCS(=O)(=O)Nc1cc(F)c(-c2ccc(C#N)n2C)cc1F` had a negative logarithm of the IC50 (pIC50) against Progesterone receptor of 7.24.

As to `CCS(=O)(=O)Nc1ccc(-c2ccc(C#N)n2C)c(C(F)(F)F)c1`, in the series with Salmonella typhimurium [5], the Activity result was “Non-toxic”. Moreover, at Progesterone receptor, the pIC50 is 7.92.

As for `CCS(=O)(=O)Nc1ccc(-c2ccc(C#N)n2C)c(C#N)c1`, the pIC50 against Progesterone receptor is 6.89.
